Data taken from patent US20100048577A1, “Method for treating benign prostate hyperplasia using resveratrol” (priority 2008, published 2010).

How the values were obtained:
[1] = system: BPH (prostate weight/body weight indices); test: Cure or prevention of testosterone enanthate induced BPH, fortified diets, prostate weight/body weight index at day 29 (Example 2); format: in vivo; settings: testosterone enanthate 25 mg i.m. days 1 and 7, diet with 1 g/kg resveratrol or trimethoxystilbene, 625 mg/kg saw palmetto, or finasteride 10 mg s.c. on 5 days
Protocol: These experiments were designed to determine whether resveratrol and trimethoxystilbene could cure or prevent BPH. Experimental animals received diets that were fortified with one of trans-resveratrol (1 g/kg), trimethoxystilbene (1 g/kg), or saw palmetto (625 mg/kg). An additional group of animals received injections of finasteride fourteen days after the start of the experiment. The animals received one, subcutaneous injection of 10 mg of finasteride in 0.1 ml dimethyl sulfoxide on 5 consecutive days. All animals, except the absolute control group, received injections of testosterone enanthate (25 mg, in 0.1 ml mineral oil). The injections were administered intramuscularly, on days 1 and 7 of the study. The absolute control group received intramuscular injections of 0.1 ml of mineral oil. At day 29, all test animals were weighed, sacrificed and their prostates were dissected free of fat and weighed. Prostate weight/body weight indices were determined for each group.

PSA = PSA expression in prostate tissue of the experimental animals by quantitative PCR (Example 4); format: in vivo; settings: animals treated as in Example 2
Protocol: In additional experiments following the details of example 2, supra, levels of PSA expression were tested.
Prostate tissue from the experimental animals was subjected to quantitative PCR, using well known methods. The expression of PSA was compared in untreated, and in resveratrol, and trimethoxystilbene treated animals.

[2] = system: induced BPH (prostate weight/body weight ratio); test: Testosterone enanthate induced BPH in rats, prostate weight after 29 days of treatment (Example 1); format: in vivo; settings: Sprague Dawley rats, finasteride 10 mg s.c., resveratrol 1 g/kg in diet, saw palmetto 625 mg/kg in diet
Protocol: Sexually mature Sprague Dawley rats were given two, intramuscular injections of testosterone enanthate, at 25 mg. This induced BPH.
Animals were then divided into different groups. A first group of 5 animals received finasteride, via subcutaneous injection at a dose of 10 mg. A second group received 1 g/kg of body weight of resveratrol, mixed into their diet. A third group received saw palmetto, at 625 mg/kg, mixed into their diet. The control group received the vehicle for the active material only with no active ingredient.
Following 29 days of treatment, all animals were sacrificed. Prostates were dissected free of fat, and weighed.
The injection of the testosterone enanthate increased the prostate weight/body weight ratio by about 2-fold.

[3] = system: Normal human prostate endothelial cells (ATCC CRL-11611); test: Gene expression of normal human prostate cells treated or not treated with resveratrol (Example 3); format: cell-based; settings: resveratrol 50 μM, 48 hours
Protocol: Normal human prostate endothelial cells were obtained from the ATCC (CRL-11611), and were either treated or not treated with resveratrol, at 50 μM, for 48 hours. Gene expression of the cells was compared, via standard methods.

SMILES	prostates (weight) compared with controls [1]	level of PSA expression relative to that of the controls (PSA)	effect on testosterone enanthate induced BPH (increased prostate weight/body weight ratio) [2]	share of the 376 genes known to be involved with apoptosis showing significant down regulation following treatment [3]
COc1ccc(/C=C/c2cc(OC)cc(OC)c2)cc1 [trimethoxystilbene]	indistinguishable from controls	about ⅓	–	–
CC(C)(C)NC(=O)[C@H]1CC[C@H]2[C@@H]3CC[C@H]4NC(=O)C=C[C@]4(C)[C@H]3CC[C@]12C [finasteride, Finasteride, reference compound]	indistinguishable from controls	–	completely reversed the effect	–
Oc1ccc(/C=C/c2cc(O)cc(O)c2)cc1 [resveratrol, trans-3,5,4′-trihydroxystilbene]	indistinguishable from controls	about ⅓	reversed the induced BPH	about 10%
